Experimental data from patent publication EP0673922A1, “Non-ionic iodinated dimers as X-ray contrast agents, process for their preparation and pharmaceutical compositions containing them” (CENTRO INVESTIGACION JUSTESA IMAGEN S.A., priority 1994, dated 1995).

What was measured:
Solubility in water = format: physicochemical
[1] = Viscosity of aqueous solution; format: physicochemical
[2] = Osmolality of aqueous solution; format: physicochemical
Description: (§1) Die Produkte der Erfindung der allgemeinen Formel I sind durch eine gute Löslichkeit in Wasser bei 20°C, eine Osmolalität in wässriger Lösung, die kleiner als die Osmolalität des Blutes (280 mOs/kg) ist, sowie durch eine niedrige allgemeine Toxizität gekennzeichnet, die als […] (LD₅₀) in Ratte bei intravenöser Gabe ausgedrückt wird.

Ratte = test: General (acute) toxicity, LD50 after intravenous administration; format: in vivo; conditions: rat, intravenous administration (b7)
Description: as §1

SMILES | Löslichkeit in Wasser bei 20°C und 300 mg I/ml (Solubility in water) [%] | Viskosität bei 37°C und 300 mg I/ml [1] | Osmolatität bei 37°C und 300 mg I/ml [2] [mOs/kg] | LD₅₀ Ratte (Ratte) [g I/kg]
CNC(=O)c1c(I)c(C(=O)NCC(O)CO)c(I)c(N(CCO)C(=O)C(O)C(=O)N(CCO)c2c(I)c(C(=O)NC)c(I)c(C(=O)NCC(O)CO)c2I)c1I (stereo not drawn) [Beispiel 1, N,N-Bis-(2-hydroxyethyl)-N,N'-bis-(3-[N-(2,3-dihydroxypropyl)carbamoyl]-5-(N-methylcarbamoyl)-2,4,6-triiodphenyl}hydroxymalonamid] | <60 | – | – | –
CNC(=O)c1c(I)c(C(=O)NCC(O)CO)c(I)c(N(CC(O)CO)C(=O)C(O)C(=O)N(CC(O)CO)c2c(I)c(C(=O)NC)c(I)c(C(=O)NCC(O)CO)c2I)c1I (stereo not drawn) [Beispiel 2, N,N'-Bis-(2,3-dihydroxypropyl)-N,N'-bis-{3-[N-(2,3-dihydroxypropyl)carbamoyl]-5-(N-methylcarbamoyl)-2,4,6-triiodphenyl}-hydroxymalonamid] | <60 | – | – | –
O=C(NCCO)c1c(I)c(C(=O)NCC(O)CO)c(I)c(N(CCO)C(=O)CC(=O)N(CCO)c2c(I)c(C(=O)NCCO)c(I)c(C(=O)NCC(O)CO)c2I)c1I (stereo not drawn) [Beispiel 3, N,N'-Bis-(2-hydroxyethyl)-N,N'-bis-{3-[N-(2,3-dihydroxypropyl)-carbamoyl]-5-[N-(2-hydroxyethyl)carbamoyl]-2,4,6-triiodphenyl}-malonamid] | >60 | 7,5 mPa·s | 160 | >15
O=C(NCCO)c1c(I)c(C(=O)NCC(O)CO)c(I)c(N(CC(O)CO)C(=O)CC(=O)N(CC(O)CO)c2c(I)c(C(=O)NCCO)c(I)c(C(=O)NCC(O)CO)c2I)c1I (stereo not drawn) [Beispiel 4, N,N'-Bis-(2,3-hydroxypropyl)-N,N'-bis-{3-[N-(2,3-dihydroxypropyl)carbamoyl]-5-[N-(2-hydroxyethyl)carbamoyl]-2,4,6-triiodphenyl}malonamid] | >60 | 6,8 mPa·s | 190 | >15
CN(C(=O)C(O)C(=O)N(C)c1c(I)c(C(N)=O)c(I)c(C(=O)NCC(O)CO)c1I)c1c(I)c(C(N)=O)c(I)c(C(=O)NCC(O)CO)c1I (stereo not drawn) [Beispiel 5, N,N'-Dimethyl-N,N'-bis-{5-carbamoyl-3-[N-(2,3-dihydroxypropyl)carbamoyl]-2,4,6-triiodphenyl}hydroxymalonamid] | <60 | – | – | –
CN(C(=O)C(O)C(=O)N(C)c1c(I)c(C(N)=O)c(I)c(C(=O)NC(CO)C(O)CO)c1I)c1c(I)c(C(N)=O)c(I)c(C(=O)NC(CO)C(O)CO)c1I (stereo not drawn) [Beispiel 6, N,N'-Dimethyl-N,N'-bis-{5-carbamoyl-3-[N-(1-hydroxymethyl-2,3-dihydroxypropyl)carbamoyl]-2,4,6-triiodphenyl}-hydroxymalonamid] | <60 | – | – | –
CN(C(=O)C(O)C(=O)N(C)c1c(I)c(C(=O)NCC(O)CO)c(I)c(C(=O)NCC(O)CO)c1I)c1c(I)c(C(N)=O)c(I)c(C(=O)NCC(O)CO)c1I (stereo not drawn) [Beispiel 7, N,N'-Dimethyl-N-{5-carbamoyl-3-[N-(2,3-dihydroxypropyl)carbamoyl]-2,4,6-triiodphenyl}-N'-{3,5-bis-[N-(2,3-dihydroxypropyl)carbamoyl]-2,4,6-triiodphenyl}hydroxymalonamid] | >60 | 8,1 mPa·s | 170 | >15
NC(=O)c1c(I)c(C(=O)NCC(O)CO)c(I)c(N(CCO)C(=O)C(O)C(=O)N(CCO)c2c(I)c(C(N)=O)c(I)c(C(=O)NCC(O)CO)c2I)c1I (stereo not drawn) [Beispiel 8, N,N'-Bis-(2-hydroxyethyl)-N,N'-bis-{5-carbamoyl-3-[N-(2,3-dihydroxypropyl)carbamoyl]-2,4,6-triiodphenyl}-hydroxymalonamid] | <60 | – | – | –
NC(=O)c1c(I)c(C(=O)NC(CO)C(O)CO)c(I)c(N(CCO)C(=O)C(O)C(=O)N(CCO)c2c(I)c(C(N)=O)c(I)c(C(=O)NC(CO)C(O)CO)c2I)c1I (stereo not drawn) [Beispiel 9, N,N'-Bis-(2-hydroxyethyl)-N,N'-bis-{5-carbamoyl-3-[N-(1-hydroxymethyl-2,3-dihydroxy-propyl)carbamoyl]-2,4,-6-triiodphenyl}hydroxymalonamid] | <60 | – | – | –
O=C(NCCO)c1c(I)c(C(=O)NCC(O)CO)c(I)c(N(CCO)C(=O)C(O)C(=O)N(CCO)c2c(I)c(C(=O)NCCO)c(I)c(C(=O)NCC(O)CO)c2I)c1I (stereo not drawn) [Beispiel 10, N,N'-Bis-(2-hydroxyethyl)-N,N'-bis-{3-[N-(2,3-dihydroxypropyl)carbamoyl]-5-[N-(2-hydroxyethyl)carbamoyl]-2,4,6-triiodphenyl}hydroxymalonamid] | >60 | 7,3 mPa·s | 170 | >15
O=C(NCCO)c1c(I)c(C(=O)NCC(O)CO)c(I)c(N(CC(O)CO)C(=O)C(O)C(=O)N(CC(O)CO)c2c(I)c(C(=O)NCCO)c(I)c(C(=O)NCC(O)CO)c2I)c1I (stereo not drawn) [Beispiel 11, N,N'-Bis-(2,3-dihydroxypropyl)-N,N'-bis-{3-[N-(2,3-dihydroxypropyl)carbamoyl]-5-[N-(2-hydroxyethyl)carbamoyl]-2,4,6-triiodphenyl}hydroxymalonamid] | >60 | 7,8 mPa·s | 210 | >15
NC(=O)c1c(I)c(C(=O)NCC(O)CO)c(I)c(N(CC(O)CO)C(=O)C(O)C(=O)N(CC(O)CO)c2c(I)c(C(N)=O)c(I)c(C(=O)NCC(O)CO)c2I)c1I (stereo not drawn) [Beispiel 12, N,N'-Bis-(2,3-dihydroxypropyl)-N,N'-bis-{5-carbamoyl-3-[N-(2,3-dihydroxypropyl)carbamoyl]-2,4,6-triiodphenyl}-hydroxymalonamid] | >60 | 6,5 mPa·s | 240 | >15
CN(C(=O)C(=O)C(=O)N(C)c1c(I)c(C(=O)NCC(O)CO)c(I)c(C(=O)NCC(O)CO)c1I)c1c(I)c(C(=O)NCC(O)CO)c(I)c(C(=O)NCC(O)CO)c1I (stereo not drawn) [Beispiel 13, N,N'-Dimethyl-N,N'-bis-{3,5-bis[N-(2,3-dihydroxypropyl)carbamoyl]-2,4,6-triiodphenyl}cetomalonamid] | >60 | 10,9 mPa·s | 160 | >15
CN(C(=O)C(=O)C(=O)N(C)c1c(I)c(C(N)=O)c(I)c(C(=O)NCC(O)CO)c1I)c1c(I)c(C(N)=O)c(I)c(C(=O)NCC(O)CO)c1I (stereo not drawn) [Beispiel 14, N,N'-Dimethyl-N,N'-bis-{5-carbamoyl-3-[N-(2,3-dihydroxypropyl)carbamoyl]-2,4,6-triiodphenyl}cetomalonamid] | <60 | – | – | –
CC(=O)N(CC(O)CN(C(C)=O)c1c(I)c(C(=O)NCC(O)CO)c(I)c(C(=O)NCC(O)CO)c1I)c1c(I)c(C(=O)NCC(O)CO)c(I)c(C(=O)NCC(O)CO)c1I (stereo not drawn) [IODIXANOL, Iodixanol, reference compound] | >60 | 8,7 mPa·s | 200 | >15
